What was measured:
[1] = target: Metallo-beta-lactamase type 2 (Bacteria, UniProt C7C422); assay: Inhibition of Metallo-beta-lactamase NDM-1 (unknown origin)
[2] = Inhibition of Metallo-beta-lactamase IMP-1 (unknown origin); set-up: species or system Bacteria
[3] = Inhibition of Metallo-beta-lactamase VIM-1 (unknown origin); set-up: species or system Bacteria
Escherichia coli = assay: Antibacterial activity against NDM-1 expressing Escherichia coli CLB30016 assessed as inhibition of bacterial growth in presence of IMI by absorbance based assay; assay type: functional
Serratia marcescens = assay: Antibacterial activity against IMP-1 expressing Serratia marcescens CL5741 assessed as inhibition of bacterial growth in presence of IMI by absorbance based assay; assay type: functional
Klebsiella pneumoniae = assay: Antibacterial activity against VIM-1 expressing Klebsiella pneumoniae IHMA599644 assessed as inhibition of bacterial growth in presence of IMI by absorbance based assay; assay type: functional
[4] = Inhibition of Metallo-beta-lactamase VIM-2 (unknown origin); set-up: species or system Bacteria
Pseudomonas aeruginosa [5] = assay: Antibacterial activity against wildtype isogenic efflux/IMP-1 expressing Pseudomonas aeruginosa MB9798 assessed as inhibition of bacterial growth in presence of IMI by absorbance based assay; assay type: functional
Pseudomonas aeruginosa [6] = assay: Antibacterial activity against mutant isogenic efflux/IMP-1 expressing Pseudomonas aeruginosa MB9799 assessed as inhibition of bacterial growth in presence of IMI by absorbance based assay; assay type: functional
[7] = Efflux ratio of MITC95 for antibacterial activity against wildtype isogenic efflux/IMP-1 expressing Pseudomonas aeruginosa MB9798 assessed as inhibition of bacterial growth in presence of IMI to MITC95 for antibacterial activity against mutant isogenic efflux/IMP-1 expressing Pseudomonas aeruginosa MB9799 assessed as inhibition of bacterial growth in presence of IMI; assay type: functional
[8] = Cmax in rat at 30 mg/kg, iv; assay type: ADME, organism-based; conditions: in vivo
[9] = Toxicity in cardiovascular rat model assessed as increase in histamine release in plasma at 30 mg/kg, iv; assay type: organism-based; conditions: in vivo
[10] = Toxicity in rat assessed as emesis at 1 mg/kg, iv; assay type: organism-based; conditions: in vivo
[11] = Toxicity in rat assessed as watery eyes at 1 mg/kg, iv; assay type: organism-based; conditions: in vivo
[12] = Toxicity in rat assessed as anaphylaxis at 1 mg/kg, iv; assay type: organism-based; conditions: in vivo
[13] = Toxicity in dog assessed as emesis at 1 mg/kg; assay type: organism-based, Canis lupus familiaris; conditions: in vivo
[14] = Toxicity in dog assessed as watery eyes at 1 mg/kg; assay type: organism-based, Canis lupus familiaris; conditions: in vivo
[15] = Toxicity in dog assessed as anaphylaxis at 1 mg/kg; assay type: organism-based, Canis lupus familiaris; conditions: in vivo
[16] = Toxicity in rat mast cells assessed as degranulation by measuring histamine release at >=300 microM; assay type: cell-based; conditions: mast cell
[17] = Toxicity in cardiovascular rat model assessed as decrease in blood pressure at 3 mg/kg,iv for 20 mins followed by 10 mg/kg, iv dose for next 20 mins and measured after 20 mins of iv dose with 30 mg/kg; assay type: organism-based; conditions: in vivo, 1 h, time 60 min
[18] = Toxicity in cardiovascular rat model assessed as increase in histamine release in plasma at 3 mg/kg,iv for 20 mins followed by 10 mg/kg, iv dose for next 20 mins and measured after 20 mins of iv dose with 30 mg/kg; assay type: organism-based; conditions: in vivo, 1 h, time 60 min
[19] = Cmax in rat at 5 mg/kg, iv; assay type: ADME, organism-based; conditions: in vivo
[20] = Toxicity in cardiovascular rat model assessed as increase in histamine release in plasma at 5 mg/kg, iv measured after >8 mins; assay type: organism-based; conditions: in vivo
[21] = Toxicity in rat mast cells assessed as degranulation by measuring histamine release at >=33 microM; assay type: cell-based; conditions: mast cell

Sequence of Metallo-beta-lactamase type 2 (C7C422 whole entry): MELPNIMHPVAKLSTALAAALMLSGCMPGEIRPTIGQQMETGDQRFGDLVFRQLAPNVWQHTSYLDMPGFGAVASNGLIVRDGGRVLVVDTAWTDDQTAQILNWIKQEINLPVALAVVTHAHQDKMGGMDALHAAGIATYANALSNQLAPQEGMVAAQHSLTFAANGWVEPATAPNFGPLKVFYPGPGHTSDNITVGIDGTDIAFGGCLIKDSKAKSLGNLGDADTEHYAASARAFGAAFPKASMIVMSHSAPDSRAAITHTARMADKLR

Work on `Cc1ccc(-c2cccc(S(N)(=O)=O)c2-c2nnn[nH]2)cc1` yielded an IC50 [1] of 3.7 nM, an IC50 [2] of 64 nM and an IC50 [3] of 57 nM. For the same compound, the MITC95 (Escherichia coli) was 1.5 µM, the MITC95 (Serratia marcescens) was 14 µM and the MITC95 (Klebsiella pneumoniae) was 127 µM.

For `NS(=O)(=O)c1c(CC2CCNCC2)ccc(-c2ccc(C3CCNCC3)cc2)c1-c1nn[nH]n1`, the IC50 [1] was 11 nM, the IC50 [2] was 24 nM and the IC50 [3] was 5 nM. For the same compound, the IC50 [4] was 1230 nM, the MITC95 (Escherichia coli) was 2 µM and the MITC95 (Serratia marcescens) was 3.9 µM. The MITC95 (Klebsiella pneumoniae) was 2.3 µM, the MITC95 (Pseudomonas aeruginosa [5]) was 4.4 µM and the MITC95 (Pseudomonas aeruginosa [6]) was 0.8 µM. For the same compound, the Ratio [7] was 6, the Cmax [8] was 459 µM and the Activity [9] was “Toxic”. The Activity [10] was “Toxic”, the Activity [11] was “Toxic” and the Activity [12] was “Toxic”. The Activity [13] was “Toxic”, the Activity [14] was “Toxic” and the Activity [15] was “Toxic”. For the same compound, the Activity [16] was “Toxic”, the Activity [17] was “Toxic” and the Activity [18] was “Toxic”.

For `NS(=O)(=O)c1c(CC2CNC2)ccc(-c2ccc(C3CCNCC3)cc2)c1-c1nn[nH]n1`, the Cmax [19] was 45 µM, the Activity [20] was “Toxic” and the Activity [21] was “Toxic”.

Compound `NS(=O)(=O)c1cccc(-c2ccc(C3CCNCC3)cc2)c1-c1nn[nH]n1` has an IC50 [2] of 34 nM, an IC50 [3] of 19 nM and an MITC95 (Escherichia coli) of 3 µM. For the same compound, the MITC95 (Serratia marcescens) was 9 µM, the MITC95 (Klebsiella pneumoniae) was 38 µM and the MITC95 (Pseudomonas aeruginosa [5]) was 200 µM. For the same compound, the MITC95 (Pseudomonas aeruginosa [6]) was 1.56 µM and the Ratio [7] was 128.

Compound `NS(=O)(=O)c1c(C(F)(F)F)ccc(-c2ccc(C3CCNCC3)cc2)c1-c1nn[nH]n1` has an IC50 [1] of 0.9 nM, an IC50 [2] of 1.2 nM and an IC50 [3] of 0.3 nM. It also gave an MITC95 (Escherichia coli) of 0.7 µM, an MITC95 (Serratia marcescens) of 0.2 µM and an MITC95 (Klebsiella pneumoniae) of 1.9 µM. It also gave an MITC95 (Pseudomonas aeruginosa [5]) of 50 µM, an MITC95 (Pseudomonas aeruginosa [6]) of 0.78 µM and a Ratio [7] of 64.

Work on `NCCS(=O)(=O)c1ccc(-c2ccc(C3CCNCC3)cc2)c(-c2nn[nH]n2)c1S(N)(=O)=O` yielded an IC50 [2] of 0.17 nM, an IC50 [3] of 0.2 nM and an MITC95 (Escherichia coli) of 1.56 µM. The MITC95 (Serratia marcescens) was 1.56 µM, the MITC95 (Klebsiella pneumoniae) was 3.13 µM and the MITC95 (Pseudomonas aeruginosa [6]) was 0.78 µM. The Ratio [7] was 2.

`NS(=O)(=O)c1c(SC2CCNCC2)ccc(-c2ccc(C3CCNCC3)cc2)c1-c1nnn[nH]1` showed an IC50 [2] of 35.7 nM, an IC50 [3] of 48.5 nM and an MITC95 (Escherichia coli) of 1.56 µM. The MITC95 (Serratia marcescens) was 3.13 µM, the MITC95 (Klebsiella pneumoniae) was 6.25 µM and the MITC95 (Pseudomonas aeruginosa [5]) was 25 µM. For the same compound, the MITC95 (Pseudomonas aeruginosa [6]) was 0.78 µM and the Ratio [7] was 32.
